Consider 2 compounds from patent publication US11708391B2, “Rapaglutins, novel inhibitors of GLUT and use thereof” (The Johns Hopkins University, priority 2016, dated 2023).

“Also recorded” adds a separate entry of the source. Where two headings read alike, the source gives them in different places.

One series has as its system T1, glucose transporters.
T1 construct: IC50 uptake of 3H-labeled 3-O-methylglucose; other: A549 cells; compared with 3-O-methylglucose uptake; other: A549 cells treated with drugs for 1 min; other: A549 cells, glucose uptake assay; other
The experiment in a line: 2-deoxy-D-[3H] glucose uptake in A549 cells. The class given is cell-based, human. Conditions: for inhibition of glucose transport: A549 cells, glucose uptake assay. As to the method:
FIGS. 2A-2D. Inhibition of Glucose Transport by A18 and E11. (a) Inhibition of 3-O-methyl¬D-[3H] glucose uptake in A549 cells by A18. (b) Inhibition of 3-O-methyl-D-[3H] glucose uptake in A549 cells by E11. (c) Inhibition of 2-deoxy-D-[3H] glucose uptake in A549 […] cells by A18. (d) Inhibition of 2-deoxy-D-[3H] glucose uptake in A549 cells by E11.
FIGS. 16A-16B. Inhibition of Glucose Transport by A18 and E11. Cytochalasin B (10 μM), A18 (3 μM), E11 (3 μM) and DMSO control were used to treated A549 cells for 10 min (a) or 1 min (b), then glucose uptake in the treated cells was measured at 1, 3, 10 and 30 min after the addition of 2-dexoy-D-[^3H] glucose.
Direct action on glucose transporters was measured by monitoring uptake of 3H-labeled 3-O-methylglucose, which is transported by glucose transporters but not metabolized further, allowing the assessment of initial rate of glucose uptake. […] Initial uptake can also be assessed by measuring the uptake of 3H-labeled 2-deoxy-D-glucose, which gets into the cell through glucose transporters and is phosphorylated by hexokinase but cannot be metabolized further due to the lack of oxygen at the second position.

For a further series, the system named is NFAT. The experiment in a line: NFAT reporter gene assay. It counts as cell-based. The text has this:
(§1) FIGS. 28A-28D. (a) A18 and E11 inhibit NFAT and A18, but not E11, stimulates SRE reporter gene signal. (b) E11 inhibits NFAT, NF-κB and IL2, but not MEF-2 or AP-1 pathways, in Jurkat T cells. (c) Glucose inhibitor stimulates SRE reporter gene signal.
Both A18 and E11 have shown immunosuppressive activity, blocking NFAT reporter gene activation and IL-2 production (see e.g., FIG. 28). As such, they can be used as immunosuppressive agents that have applications in treating organ transplantation rejection and all kinds of autoimmune diseases. […]
Background: A reporter such as luciferase makes a cellular process visible.

Another series has as its system NF-κB. The experiment in a line: NF-κB pathway reporter in Jurkat T cells. It counts as cell-based.
Text: as §1

Series [1] has as its system HEK 293T cells. Kind of series: Western blot for DNA damage and apoptosis markers in HEK 293T. Conditions: 72 h (DNA damage), 24 h (apoptosis).
In the next series the test system is SRE. Kind of series: SRE reporter gene assay. The class given is cell-based.
Text: as §1

Series [2] relates to HEK 293T cells.

Gly-^MSerBu-Nal-^MAla [E11] yielded a glucose uptake inhibition in the series with glucose transporters (A549 cells treated with drugs for 1 min) of 50%. Further, the “inhibition of glucose transport” value with glucose transporters is given as “significantly inhibit”. In the series on NFAT, the “NFAT reporter gene signal” value is given as “inhibit; also recorded: blocking”. Further, the NF-κB pathway entry in the series with NF-κB was “inhibits”. For the same compound, the “DNA damage or apoptosis (phosphor-p53, active caspase 3, 7 and 9)” value in the series with HEK 293T cells [1] is recorded as “do not induce DNA damage or apoptosis”.

Turning to `CC[C@@H](C)[C@H]1C(=O)NCC(=O)N(C)CC/C=C/C(=O)OCC(C)(C)C(=O)C(=O)N2CCCC[C@H]2C(=O)O[C@H](CCc2ccc(OC)c(OC)c2)c2cccc(c2)NC(=O)CCC(=O)N(C)[C@@H](CC(C)C)C(=O)N[C@H](Cc2ccccc2)C(=O)N1C` [A18], in the series on glucose transporters, the “inhibition of glucose transport” value is reported as “significantly inhibit”. Besides, the “NFAT reporter gene signal” value in the series on NFAT is given as “inhibit; also recorded: blocking”. Moreover, the “SRE reporter gene signal” value in the series with SRE was “stimulates”. In the series on HEK 293T cells [2], the “DNA damage or apoptosis (phosphor-p53, active caspase 3, 7 and 9)” value was “do not induce DNA damage or apoptosis”.
